Laboratory results published in PubChem BioAssay (NCI).
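Protocol summary: plate cells (96-well), add compound at 5 concentrations, incubate 48 h, interpolate endpoints linearly. Definition used: TGI = concentration required for complete inhibition of growth.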

Columns and labels:
Assay in all cases: DTP human tumour cell line panel, 48 h
DMS 273 small cell lung = system: DMS 273 small cell lung
LOX IMVI melanoma = system: LOX IMVI melanoma
HCT-116 colon = system: HCT-116 colon
OVCAR-4 ovarian = system: OVCAR-4 ovarian
SK-OV-3 ovarian = system: SK-OV-3 ovarian
NCI-H460 lung = system: NCI-H460 lung
NCI-H23 lung = system: NCI-H23 lung
K-562 leukemia = system: K-562 leukemia
DLD-1 colon = system: DLD-1 colon
HL-60(TB) leukemia = system: HL-60(TB) leukemia
SF-268 CNS = system: SF-268 CNS
KM20L2 colon = system: KM20L2 colon
786-0 renal = system: 786-0 renal
SK-MEL-2 melanoma = system: SK-MEL-2 melanoma
UO-31 renal = system: UO-31 renal
RPMI-8226 leukemia = system: RPMI-8226 leukemia
OVCAR-3 ovarian = system: OVCAR-3 ovarian
EKVX NSCLC = system: EKVX NSCLC
SW-620 colon = system: SW-620 colon
HCT-15 colon = system: HCT-15 colon
LXFL 529 NSCLC = system: LXFL 529 NSCLC
UACC-257 melanoma = system: UACC-257 melanoma
DMS 114 small cell lung = system: DMS 114 small cell lung
SNB-78 CNS = system: SNB-78 CNS
M14 melanoma = system: M14 melanoma
KM12 colon = system: KM12 colon
SF-539 CNS = system: SF-539 CNS
SNB-19 CNS = system: SNB-19 CNS
HOP-92 NSCLC = system: HOP-92 NSCLC
HCC-2998 colon = system: HCC-2998 colon
COLO 205 colon = system: COLO 205 colon
IGROV1 ovarian = system: IGROV1 ovarian
OVCAR-5 ovarian = system: OVCAR-5 ovarian
SK-MEL-28 melanoma = system: SK-MEL-28 melanoma
CCRF-CEM leukemia = system: CCRF-CEM leukemia
ACHN renal = system: ACHN renal
HT29 colon = system: HT29 colon
A498 renal = system: A498 renal
TK-10 renal = system: TK-10 renal
OVCAR-8 ovarian = system: OVCAR-8 ovarian
SK-MEL-5 melanoma = system: SK-MEL-5 melanoma
MALME-3M melanoma = system: MALME-3M melanoma
HOP-62 NSCLC = system: HOP-62 NSCLC
NCI-H522 lung = system: NCI-H522 lung
U251 CNS = system: U251 CNS
SF-295 CNS = system: SF-295 CNS
SN12C renal = system: SN12C renal
SNB-75 CNS = system: SNB-75 CNS
A549 NSCLC = system: A549 NSCLC
M19-MEL melanoma = system: M19-MEL melanoma
UACC-62 melanoma = system: UACC-62 melanoma
MOLT-4 leukemia = system: MOLT-4 leukemia
XF 498 CNS = system: XF 498 CNS

Measured: TGI

COc1ccccc1-c1cc(=O)c2cc(C)c(C)c(C(=O)O)c2o1
> 100 µM: all assays above
